Measurements reported in patent publication US10273224B2, “Substituted pyrimidine compounds, compositions and medicinal applications thereof” (JUBILANT BIOSYS LIMITED, priority 2013, dated 2019).

Molecular target: T1, EGFR (L858R & T790M) (Homo sapiens, UniProt P00533, L858R/T790M)
T1 construct: GST; purchased Proqinase
Assay: EGFR (L858R & T790M) inhibition assay, HTRF method
Conditions: biochemical HTRF; EGFR (T790M/L858R) 2.5 nM, ATP 5 μM, 60 min room temperature
Procedure, shortened: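 GST-EGFR T790M/L858R (2.5 nM) phosphorylating biotinylated gastrin precursor peptide (0.5 μM) with 5 μM ATP in HEPES pH 7.4/Mg/Mn buffer, 60 min room temperature; compounds from 10 μM top. HTRF read-out (Eu anti-pTyr, SA-APC), 665/620 nm; IC50 from % inhibition.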

T1 sequence (P00533 25-1210 T790M/L858R): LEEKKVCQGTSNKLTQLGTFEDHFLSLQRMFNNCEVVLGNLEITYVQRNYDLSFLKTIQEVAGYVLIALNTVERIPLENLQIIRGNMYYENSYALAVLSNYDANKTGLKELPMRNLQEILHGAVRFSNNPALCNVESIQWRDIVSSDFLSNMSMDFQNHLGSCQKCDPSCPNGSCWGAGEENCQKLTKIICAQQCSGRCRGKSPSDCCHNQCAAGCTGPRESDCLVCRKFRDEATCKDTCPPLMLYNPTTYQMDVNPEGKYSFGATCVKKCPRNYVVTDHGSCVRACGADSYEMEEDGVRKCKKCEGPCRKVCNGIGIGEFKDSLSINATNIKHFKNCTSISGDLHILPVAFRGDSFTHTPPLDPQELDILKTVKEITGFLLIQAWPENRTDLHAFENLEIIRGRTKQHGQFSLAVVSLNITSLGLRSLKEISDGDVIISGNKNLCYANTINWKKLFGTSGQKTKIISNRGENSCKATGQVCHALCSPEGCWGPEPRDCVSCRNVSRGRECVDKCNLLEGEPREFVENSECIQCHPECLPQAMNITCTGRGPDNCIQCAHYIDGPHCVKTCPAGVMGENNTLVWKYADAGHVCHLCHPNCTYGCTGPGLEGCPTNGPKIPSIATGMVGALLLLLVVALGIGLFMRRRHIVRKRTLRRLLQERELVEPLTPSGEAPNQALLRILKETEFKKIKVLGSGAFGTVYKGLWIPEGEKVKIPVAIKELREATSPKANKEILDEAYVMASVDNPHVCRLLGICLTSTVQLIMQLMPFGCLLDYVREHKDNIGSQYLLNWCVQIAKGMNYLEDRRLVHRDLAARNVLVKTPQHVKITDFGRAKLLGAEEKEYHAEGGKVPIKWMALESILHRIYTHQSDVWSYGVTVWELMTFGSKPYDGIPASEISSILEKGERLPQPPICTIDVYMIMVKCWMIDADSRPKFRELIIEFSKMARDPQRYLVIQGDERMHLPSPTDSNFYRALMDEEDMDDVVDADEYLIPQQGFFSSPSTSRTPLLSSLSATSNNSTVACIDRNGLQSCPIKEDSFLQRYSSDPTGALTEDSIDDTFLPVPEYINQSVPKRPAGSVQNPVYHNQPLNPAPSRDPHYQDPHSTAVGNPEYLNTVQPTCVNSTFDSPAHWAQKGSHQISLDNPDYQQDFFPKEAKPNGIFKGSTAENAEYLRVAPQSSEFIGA

Structure (SMILES)	IC50
C=CC(=O)N1CCCC(Nc2nc(Nc3cnn(C4CCC4)c3)ncc2Cl)C1 (single isomer, unassigned) [II-5 (Enantiomer 1), 1-(3-((5-chloro-2-((1-cyclobutyl-1H-pyrazol-4-yl)amino)pyrimidin-4-yl)amino)piperidin-1-yl)prop-2-en-1-one]	> 100 nM
C=CC(=O)NC1CCCC(Nc2nc(Nc3cn(C)nc3Cl)ncc2Cl)C1 (stereo not drawn) [Compound I-95, N-(3-((5-chloro-2-((3-chloro-1-methyl-1H-pyrazol-4-yl)amino)pyrimidin-4-yl)amino)cyclohexyl)acrylamide]	10 to 100 nM

Further lines, results first:

IC50	Structure (SMILES)
> 100 nM	CN(C)C/C=C/C(=O)NC1CCCC(Nc2nc(Nc3cnn(C)c3)ncc2Cl)C1 (stereo not drawn) [Compound I-101, (E)-N-(3-((5-chloro-2-((1-methyl-1H-pyrazol-4-yl)amino)pyrimidin-4-yl)amino)cyclohexyl)-4-(dimethylamino)but-2-enamide]
10 to 100 nM	C=CS(=O)(=O)Nc1cc(Nc2nc(Nc3cnn(C4CCN(C)CC4)c3)ncc2Cl)ccc1F [Compound I-64, N-(5-((5-chloro-2-((1-(1-methylpiperidin-4-yl)-1H-pyrazol-4-yl)amino)pyrimidin-4-yl)amino)-2-fluorophenyl)ethenesulfonamide]
< 10 nM	C=CC(=O)Nc1cc(Cl)cc(Nc2nc(Nc3cnn(C)c3)ncc2Cl)c1 [Compound I-35, N-(3-chloro-5-((5-chloro-2-((1-methyl-1H-pyrazol-4-yl)amino)pyrimidin-4-yl)amino)phenyl)acrylamide]
> 100 nM	C=CC(=O)Nc1cccc(C(C)Nc2nc(Nc3cnn(C)c3)ncc2Cl)c1 (stereo not drawn) [Compound I-56, N-(3-(1-((5-chloro-2-((1-methyl-1H-pyrazol-4-yl)amino)pyrimidin-4-yl)amino)ethyl)phenyl)acrylamide]
